US20240197760A1, “ACTIVATORS OF INTEGRATED STRESS RESPONSE PATHWAY FOR PROTECTION AGAINST FERROPTOSIS” (Burke Neurological Institute, priority 2021, published 2024)
“Also recorded” adds a separate entry of the source.

Test system: MCAO mice
Assay: Filament MCAO model of transient ischemic stroke, sensory and motor function
Format: in vivo, mouse
Conditions: 10 mg/Kg i.p. from 24 h after MCAO, every day for 4 weeks
Description: To assess the effect of 2-DG on the Bdnf gene expression, mice were injected with either saline or 2-DG (10 mg/Kg) intraperitoneally for 6 h and then mice were euthanized properly, and hippocampi were dissected out from mice brain. In order to assess functional improvement with 2-DG treatment after ischemic stroke, mice were injected with 2-DG (10 mg/Kg) intraperitoneally 24 h after induction of the stroke and then every day for four weeks. For assessing functional improvement with 2-DG treatment after hemorrhagic stroke, mice were injected with 2-DG (10 mg/Kg) intraperitoneally 24 h after induction of the stroke and then every day for three weeks. The ischemic stroke was induced using filament MCAO method as described before (Alim et al., 2019). In brief, all surgeries were conducted in sterile conditions. Male mice were anesthetized with isoflurane (5% induction, and 2% maintenance). A 2 cm incision was opened in the middle of the anterior neck. The right common carotid was temporarily ligated with 6-0 silk (Ethicon Inc.). Right unilateral MCAO was accomplished by inserting a Silicon rubber-coated monofilament (Doccol Corporation) into the internal carotid artery via the external carotid artery stump. Adequacy of MCAO was confirmed by monitoring cortical blood flow at the onset of the occlusion with a laser Doppler flowmetry probe affixed to the skull (Periflux System 5010; Perimed, Sweden). Animals were excluded if mean intra-ischemic laser Doppler flowmetry was >30% pre-ischemic baseline. […] The integrated sensorimotor function in both stimulation of vibrissae (sensory neglect) and rearing (motor response) was assessed through the corner turn test as described previously (Karuppagounder et al., 2016). […] The direction (left or right) in which the mouse turned around was recorded for each trial. […] The time from which the tape was applied to when the mouse successfully removed it was recorded for each paw. […] The latency to reach the ground were recorded. […]

[1] = vs saline significant on days 21 and 28

`OC[C@H]1OC(O)C[C@@H](O)[C@@H]1O` (stereo partly drawn) [2-DG, (4R,5S,6R)-6-(hydroxymethyl)oxane-2,4,5-triol] was tested, and the “pole test after ischemic stroke” value (vs saline significant on day 21) was “significant improvement; also recorded: significant difference”, the “corner test after ischemic stroke” value [1] was “significant improvement; also recorded: significant difference” and the “tape removal test after ischemic stroke” value [1] was “significant improvement; also recorded: significant difference”.
